Laboratory results from patent publication US10898459B2, “Method of treating chronic kidney disease” (Panion & BF Biotech Inc., priority 2006, dated 2021).
Marks after values point to notes of the source that are not given here.

System: patients with end stage renal disease (ESRD) on hemodialysis
Assay: Randomized, double-blind, placebo-controlled, dose-ranging study of ferric citrate on serum phosphate, calcium and Ca x PO4
Type: in vivo, human
Details: for Serum Ca: Linear Regression: N.S.: Not Significant
Protocol: Ferric citrate is supplied in 500 mg capsules, whereas the placebo will be provided in identical-looking capsules (indistinguishable from those containing the active drug); the placebo capsules will contain sorbitol and colorant to match the powder color of the active capsules. The placebo capsule shells will be identical to the active capsule shells.
An non-limiting example of a dosing regimen is provided below. This is not meant to limit the invention as to how an effective amount of ferric citrate is selected, or the form in which it is provided or the frequency of administering the composition per day. The following merely illustrates how ferric citrate and placebo may be administered; e.g., as 500 mg capsules of identical appearance. All patients may receive (in a blinded fashion) 4 capsules with each of three meals, on a daily basis, for 28 days. Patients will be instructed to take the study medication within 10 minutes of finishing their meals (breakfast, lunch, and dinner).
Each patient's participation in the trial lasts for up to 8 weeks: the screening period (approximately 1-2 weeks), a 1-2 week washout, and 4 weeks of treatment with study medication.
The change in serum PO4 concentration at Days 14 and 28 from baseline.
The change in serum calcium concentration at Days 14 and 28 from baseline.
The change in the Ca′PO4 product at Days 14 and 28 from baseline.
Objectives: (1) To determine the effect of ferric citrate at doses of 2, 4 and 6 g daily, administered TID (three times a day), for 28 days on serum phosphate (PO4) levels in patients with end stage renal disease (ESRD). (2) To evaluate the safety of ferric citrate at doses of 2, 4, 6 g daily, administered TID, for 28 days in patients with ESRD.
Study Design: Randomized, double-blind, placebo-controlled, dose-ranging study to assess the effect of ferric citrate on serum phosphate concentrations in patients with ESRD on hemodialysis. Patients are assessed at Study Days 14 and 28 for effectiveness as measured by serum phosphate concentrations. Patients who received one or more doses of study medication are also assessed for safety.
Study Duration: 8 weeks (including the screening period, 2 weeks washout, 4 weeks treatment)
Ferric citrate is administered orally, and is given equally three times a day.

[1] = 2 g/day (N = 31), Day 0 (baseline)
[2] = 4 g/day (N = 32), Day 0 (baseline)
[3] = 6 g/day (N = 32), Day 0 (baseline)
[4] = 6 g/day (N = 32), Day 28, P < 0.05 baseline change vs placebo
[5] = at 0, 2, and 6 gm/day, TID immediately after meals, oral

ferric citrate
Serum [Ca] [1]: 8.78 ± 0.981 mg/dL
Serum [PO4] [1]: 7.1 ± 1.23 mg/dL
[Ca] * [PO4] [1]: 62.9 ± 13.25 (mg/dL)^2
Serum [Ca] (2 g/day (N = 31), Day 14): 9.01 ± 1.232 mg/dL
Serum [PO4] (2 g/day (N = 31), Day 14): 6.7 ± 1.50 mg/dL
[Ca] * [PO4] (2 g/day (N = 31), Day 14): 60.3 ± 16.50 (mg/dL)^2
Serum [Ca] (2 g/day (N = 31), Day 28): 9.00 ± 0.953 mg/dL
Serum [PO4] (2 g/day (N = 31), Day 28): 6.9 ± 2.22 mg/dL
[Ca] * [PO4] (2 g/day (N = 31), Day 28): 61.7 ± 21.25 (mg/dL)^2
Serum [Ca] [2]: 9.02 ± 0.913 mg/dL
Serum [PO4] [2]: 7.1 ± 1.27 mg/dL
[Ca] * [PO4] [2]: 63.5 ± 10.69 (mg/dL)^2
Serum [Ca] (4 g/day (N = 32), Day 14): 9.47 ± 0.990 mg/dL
Serum [PO4] (4 g/day (N = 32), Day 14): 6.4 ± 1.56 mg/dL
[Ca] * [PO4] (4 g/day (N = 32), Day 14): 59.9 ± 13.89 (mg/dL)^2
Serum [Ca] (4 g/day (N = 32), Day 28): 9.29 ± 0.960 mg/dL
Serum [PO4] (4 g/day (N = 32), Day 28): 6.0 ± 1.33 mg/dL
[Ca] * [PO4] (4 g/day (N = 32), Day 28): 55.4 ± 13.36 (mg/dL)^2
Serum [Ca] [3]: 8.99 ± 0.812 mg/dL
Serum [PO4] [3]: 7.3 ± 1.33 mg/dL
[Ca] * [PO4] [3]: 65.8 ± 12.19 (mg/dL)^2
Serum [Ca] (6 g/day (N = 32), Day 14): 9.13 ± 0.909 mg/dL
Serum [PO4] (6 g/day (N = 32), Day 14): 6.3 ± 1.72 mg/dL
[Ca] * [PO4] (6 g/day (N = 32), Day 14): 57.5 ± 16.27 (mg/dL)^2
Serum [Ca] (6 g/day (N = 32), Day 28): 9.26 ± 0.865 mg/dL
Serum [PO4] [4]: 5.8 ± 1.76 mg/dL
[Ca] * [PO4] [4]: 54.1 ± 17.68* (mg/dL)^2
change in Ca*PO4 levels (6 gm/day dose at both 14 and 28 days): decreased and were statistically significant
Serum Ca: Dose Response (Day 0): No
Ca × PO4: Linear Regression P (Day 14): P = 0.0401
Ca × PO4: Statistical Significant (Day 14): No
Serum Ca: Statistical Significant (Day 14): No
Serum PO4: Statistical Significant (Day 14): No
Serum Ca: Linear Regression (Day 14): N.S.
Ca × PO4: Dose Response (Day 14, placebo, 2, 4, 6 g/day): Yes
Serum Ca: Dose Response (Day 14, placebo, 2, 4, 6 g/day): No
Serum PO4: Dose Response (Day 14, placebo, 2, 4, 6 g/day): No
Ca × PO4: Linear Regression P (Day 28): P = 0.0158
Ca × PO4: Statistical Significant (Day 28): Yes (6 g/day)
Serum Ca: Statistical Significant (Day 28): No
Serum PO4: Linear Regression P (Day 28): P = 0.0073
Serum PO4: Statistical Significant (Day 28): Yes (6 g/day)
Serum Ca: Linear Regression (Day 28): N.S.
Ca × PO4: Dose Response (Day 28, placebo, 2, 4, 6 g/day): Yes
Serum Ca: Dose Response (Day 28, placebo, 2, 4, 6 g/day): No
Serum PO4: Dose Response (Day 28, placebo, 2, 4, 6 g/day): Yes
change in Ca*PO4 [5]: decrease
change in serum PO4 [5]: decrease
change in serum calcium level (during the 28 days, 2, 4, and 6 gm/day): No significant change
ability to lower the serum phosphate levels (patients with ESRD): demonstrated
